The numbers were not newly measured in patent US20020120149A1, “Substituted hydrazine derivatives” (priority 2000, published 2002), which cites them from elsewhere.

For the data set, the system named is NMDA receptor. As to conditions: in vitro at concentrations at which clinical efficacy is seen.

Turning to `O=C(CCCN1CCC(O)(c2ccc(Cl)cc2)CC1)c1ccc(F)cc1` [haloperidol], the “increase in NMDA receptor activity” value is given as around 40%.
